Laboratory results from US20150299233A1, “COMPOSITIONS AND METHODS COMPRISING RHENIUM FOR THE TREATMENT OF CANCERS” (Massachusetts Institute of Technology, priority 2014, published 2015).

Assays:
[1] = Stability in whole human blood (octanol extraction, GFAAS); type: in vitro ADME; conditions: 500 μM, fresh human blood, 37° C.
Description: The stability of biologically active compounds in human blood is vitally important for their potential application in clinical settings. The stability of 1 in whole human blood using a recently developed protocol was investigated. The method exploits the ability of octanol to extract hydrophobic metal complexes such as 1. The rhenium complex 1 (500 μM) was incubated with fresh human blood at 37° C., and aliquots were extracted into octanol at various time points. The amount of 1 in the octanol extracts (corresponding to unreacted 1) was measured by graphite furnace atomic absorption spectroscopy (GFAAS).

A549 cells [2] = experiment: Cytotoxicity in the presence of cell death inhibitors, A549 cells; type: cell-based, human; conditions: for effect of co-treatment with IM-54 on toxicity: IM-54 10 μM, FIG. 1B; for effect of co-incubation with necrostatin-1 on toxicity, A549: necrostatin-1 60 μM, t test p<0.05, FIG. 1B
Description: In order to determine the cell-killing mechanism of 1 and 2, cytotoxicity studies in the presence of apoptosis and necrosis inhibitors were conducted. […] The possibility that 1 and 2 induce necroptosis was then investigated. […] To determine whether 1 and 2 induced necroptosis and/or uncontrolled necrosis, cytotoxicity studies were conducted in the presence of necrostatin-1 (60 μM) and IM-54 (10 μM), an inhibitor of H2O2-induced necrosis.
Cytotoxicity MTT Assay. […] Cells (2×10^3 cells/well) were seeded in a 96-well plate. […] 1 and 2 were prepared as 10 mM solutions in DMSO and diluted using media. The final concentration of DMSO in each well was 0.5%, and this amount was also present in the untreated control. After 72 h, the medium was removed, 200 μL of a 0.4 mg/mL solution of MTT in DMEM, RPMI, or McCoy's 5A was added, and the plate was incubated for an additional 1-2 h. The DMEM/MTT, RPMI/MTT, or McCoy's 5A/MTT mixture was aspirated, and 200 μL of DMSO was added to dissolve the resulting purple formazan crystals. The absorbance of the solution wells was read at 550 nm. Absorbance values were normalized to DMSO-containing control wells and plotted as the concentration of test compound versus % cell viability. IC50 values were interpolated from the resulting dose-dependent curves. The reported IC50 values are the average from at least three independent experiments, each of which consisted of six replicates per concentration level.
For specific cell death inhibitor assays, inhibitors of necroptosis (necrostatin-1, 60 μM), H2O2-induced necrosis (IM-54, 10 μM), and apoptosis (v-VAD-FMK, 5 μM) were added to cells and incubated for 1 h prior to treatment with the test compounds.

A549 cells [3] = experiment: Immunoblotting analysis of treated A549 cells; type: cell-based, human; conditions: for cleaved caspases 7 and 9: 50-500 nM for 72 h; for FADD and cleaved caspase 8 expression: increasing concentration; for overall expression level of RIP1 and RIP3: increasing dosages
Description: In order to determine the cell-killing mechanism of 1 and 2, cytotoxicity studies in the presence of apoptosis and necrosis inhibitors were conducted. […] The possibility that 1 and 2 induce necroptosis was then investigated. Necroptosis is a well-regulated mode of cell death that is different from unregulated necrosis and apoptosis. Unlike unregulated necrosis, which can be induced by H2O2 or heat, necroptosis generally involved the interaction of protein kinases, RIP1 and RIP3, to initiate cell disintegration. This process can be blocked by necrostatin-1, a potent RIP1 kinase inhibitor. To determine whether 1 and 2 induced necroptosis and/or uncontrolled necrosis, cytotoxicity studies were conducted in the presence of necrostatin-1 (60 μM) and IM-54 (10 μM), an inhibitor of H2O2-induced necrosis. […] Therefore, 1- and 2-induced cell death relies on RIP1-RIP3 complex formation and not on the expression levels of the individual protein kinases. RIP1 can also form a cytosolic complex with Fas-associated death domain (FADD) and caspase 8, known as a ripoptosome, to initiate apoptosis (through caspase 8 cleavage).
(PARP-1). PARP-1 is a nuclear enzyme that is involved in DNA repair and transcriptional regulation. DNA damage can trigger PARP-1 activity, resulting in ATP and NAD depletion and bioenergetics- mediated cell death. To determine whether PARP-1 activity is a factor in 1- and 2-mediated cell death, cytotoxicity assays were conducted with wild-type mouse embryonic fibroblast cells (MEFs PARP-1+/+) and the corresponding PARP-1-null cells (MEFs PARP-1−/−). […] Recently, p53 has also been reported to play a role in necroptosis. p53 induces cathepsin Q, a lysosomal protease that cooperates with ROS to execute necrosis. To investigate whether p53 might play a role in 1- and 2-mediated necroptosis, cytotoxicity studies were conducted with HCT116 p53^+/+ nd HCT116 p53^−/− cells.
Immunoblotting Analysis. A549 cells (1.5×10^6 cells/well) grown in six-well plates were incubated with 1 and 2 (concentrations, sub-μM) for 72 h at 37° C. Cells were washed with PBS, scraped into SDS-PAGE loading buffer (64 mM Tris-HCl (pH 6.8)/9.6% glycerol/2% SDS/5% /1-mercaptoethanol/0.01% Bromophenol Blue), and incubated at 95° C. for 10 min. Whole cell lysates were resolved by 4-20% sodium dodecyl sulfate polyacylamide gel electrophoresis (SDS-PAGE; 200 V for 25 min), followed by electro-transfer to polyvinylidene difluoride membrane (350 mA for 1 h). Membranes were blocked in 5% (w/v) non-fat milk in PBST (PBS/0.1% Tween 20) and incubated with the appropriate primary antibodies (Cell Signalling Technology and Santa Cruz). After incubation with horseradish peroxidase-conjugated secondary antibodies (Cell Signalling Technology), immuno complexes were detected with the ECL detection reagent (BioRad) and analyzed using an Alpha Innotech Chemilmager 5500 instrument fitted with a chemiluminescence filter.

| Compound | half-life in human blood [1] | effect of co-treatment with IM-54 on toxicity (A549 cells [2]) | effect of co-incubation with necrostatin-1 on toxicity, A549 (A549 cells [2]) | markers of DNA damage, phosphorylated H2AX (γH2AX) and CHK2 (A549 cells [3]) | cleaved caspases 7 and 9 (A549 cells [3]) | FADD and cleaved caspase 8 expression (A549 cells [3]) | overall expression level of RIP1 and RIP3 (A549 cells [3]) |
| --- | --- | --- | --- | --- | --- | --- | --- |
| C[O][Re](=[O])([Cl])[Cl].c1ccc(-c2ccnc3c2ccc2c(-c4ccccc4)ccnc23)cc1 [Compound 1, [ReO(OMe)(4,7-diphenyl-1,10-phenanthroline)-Cl2]] | 29.1 min | did not significantly affect the toxicity | markedly decreased the toxicity | did not up-regulate | not detected | remained unaltered | remained unchanged |
| C[O][Re-2]1(=[O])([Cl])([Cl])[n+]2cc(C)c(C)c3ccc4c(C)c(C)c[n+]1c4c32 [Compound 2, [ReO(OMe)(3,4,7,8-tetramethyl-1,10-phenanthroline)Cl2]] | – | did not significantly affect the toxicity | markedly decreased the toxicity | did not up-regulate | not detected | remained unaltered | remained unchanged |
